How the values were obtained:
[1] = test system: Dox-dependent porcine iPSCs; assay: Dox removal from Dox-dependent porcine iPSCs; type: cell-based; settings: upon Dox removal
Procedure: Germany Landrace and China TAIHU OCT4-TD-tomato [2] Porcine fetal fibroblasts (PFFs) were plated on gelatinized 15-cm tissue culture plates and cultured in M20 media. They were trypsinized with 0.25% trypsin/EDTA solution (Gibco, Cat. No. 25500-054) and harvested for electroporation at 80% confluence. M20: knockout DMEM (Gibco, Cat. No. 10829-018), 20% FBS (Gibco, Cat. No. 10270), 1× Glutamine Penicillin-Streptomycin (Thermo Fisher Scientific, Cat. No. 11140-050) and 1×NEAA (Thermo Fisher Scientific, Cat. No. 10378-016). The transfections were performed using an Amaxa Nucleofector machine (Lonza) according to the manufacturer's protocol (NHDF Nucleofector® Kit, Cat. No. VPD-1001, program U-20). piggyBac transposition was used to achieve stable integration of reprogramming factors. The expression of the reprogramming factors was under the transcriptional control of the tetO2 tetracycline/doxycycline inducible promoter. 1.5 million PFFs and 6.0 μg DNA (2.0 μg PB-TRE-pOSCK, Porcine OCT4, SOX2, cMYC and KLF4; 1.0 μg PB-TRE-pNhL, 1.0 μg PB-TRE-hRL: human RARG and TRH1, 1.0 μg PB-EF1a-transposase and 1.0 μg PB-EF1a-rTTA) were used in each electroporation reaction. PB-TRE-pOSCK: cDNAs of porcine OCT4, SOX2, cMYC and KLF4 linked by 2A sequence were expressed as a single transcript from the tetO2 promoter. […]

pEPSCs^Emb = assay: Requirement of individual culture components for pEPSCs (RT-qPCR, AP+ colony formation); type: cell-based, porcine; settings: withdrawal from medium, porcine EPSCs
Procedure: (§1) Porcine and human EPSC cultures were routinely maintained on STO feeders. STO feeder plates were prepared 3-4 days before passaging by thawing and plating the mitomycin C inactivated STO cells on 0.1% gelatinised plates at the density of ˜1.1×10^4 cells/cm^2. Porcine/human EPSC cells were maintained on STO feeder layers and enzymatically passaged every 3-5 days by a brief PBS wash followed by treatment for 3-5 minutes with 0.25% trypsin/EDTA (Gibco, Cat. No. 25500-054). The cells were dissociated and centrifuged (300 g×5 minutes) in M10 medium. M10: knockout DMEM (Gibco, Cat. No. 10829-018), 10% FBS (Gibco, Cat. No. 10270), 1× Glutamine Penicillin-Streptomycin (Thermo Fisher Scientific, Cat. No. 11140050) and 1×NEAA (Thermo Fisher Scientific, Cat. No. 10378-016). After removing supernatant, the porcine/human EPSCs were re-suspended and seeded in pEPSCM/hEPSCM supplemented with 5 μM ROCK inhibitor Y-27632 (Tocris, Cat. No. 1254). 5% FBS (Gibco, Cat. No. 10270) and 10% KnockOut Serum Replacement (KSR) (Gibco, Cat. No. 10828028) were added in pEPSCM and hEPSCM respectively to improve cells survive. 12-24 hours later, medium was switched to pEPSCM/hEPSCM only. Both pEPSCM and hEPSCM are N2B27 based media. N2B27 basal media (500 ml) was prepared by inclusion of the following components: 482.5 ml DMEM/F-12 (Gibco, Cat. No. 21331-020), 2.5 ml N2 supplement (Thermo Fisher Scientific, Cat. No. 17502048), 5 ml B27 supplement (Thermo Fisher Scientific, Cat. No. 17504044), 5 ml 1× Glutamine Penicillin-Streptomycin (Thermo Fisher Scientific, Cat. No. 11140-050), and 5 ml 1×NEAA (Thermo Fisher Scientific, Cat. No. 10378-016), 0.1 mM 2-mercaptoethanol (Sigma, Cat. No. M6250). pEPSCM (500 ml) was generated by adding the following small molecules and cytokines into 500 ml N2B27 basal media: 0.2 μM CHIR99021(GSK3i, TOCRIS, Cat. No. 4423), 1 μM WH-4-023 (SRC inhibitor, TOCRIS, Cat. No. 5413), 2.5 μM XAV939 (Sigma, Cat. No. X3004) or 2.5 μM IWR-1 (TOCRIS, Cat. No. 3532), […] Vitamin C (Sigma, Cat. No. 49752-100G), 10 ng/ml LIF (Stem Cell Institute, University of Cambridge. SCI) and 20 ng/ml ACTIVIN (SCI). hEPSCM (500 ml) was generated by adding the following components into 500 ml N2B27 basal media: 1.0 μM CHIR99021(GSK3 inhibitor, TOCRIS, Cat. No. 4423), 0.5 μM A-419259 (SRC inhibitor, TOCRIS, Cat. No. 3914), 2.5 μM XAV939 (Sigma, Cat. No. X3004), […] Vitamin C (Sigma, Cat. No. 49752-100G), 10 ng/ml LIF (SCI). Although both targeting SRC family kinases (SFKs), WH-4-023 and A419259 were preferred for porcine and human EPSCs, respectively. […] The concentrations of CHIR99021 for porcine and human EPSC cultures are 0.2 μM and 1.0 μM, respectively. […] 0.25 μM SB 590885 (BRAF inhibitor, R&D, Cat. No. 2650) and 2.0 μM SP600125 ([…], TOCRIS, Cat. No. 1496) were included to improve porcine and human EPSC cultures, but they were not essential for the routine maintenance of porcine and human EPSCs. All cell cultures in this paper were performed under conditions of 37° C. and 5% CO2 unless stated otherwise.
(§2) Total RNA was isolated using an RNeasy Mini Kit (Qiagen, Cat. No. 74106) for cultured cells or RNeasy Micro Kit (Qiagen, Cat. No. 74034) for sorted NANOS3-mCherry^+ cells. RNA was subsequently quantified and treated with gDNA WipeOut to remove genomic DNA. Complementary DNA (cDNA) was prepared using a QuantiTect Reverse Transcription Kit (Qiagen, Cat. No. 205311). RT-qPCR primers or TaqMan Gene Expression Assays (Life Technologies) are listed in Supplementary Table 10 and 11. ABsolute Blue qPCR ROX Mix (ABgene, Cat. No. AB4138B) were used for probe based qPCR assays and SYBR Green ROX qPCR Mastermix (Qiagen, Cat. No. 330523) were used for primer based qPCR assays. All qPCR reactions were performed on ABI 7900 HT Sequence Detection System (Life Technologies). Information on all primers and probes used for qPCR analysis are provided in Supplementary Table 10 and 11. Gene expression was determined relative to GAPDH using the […]. […]

H1-EPSCs = assay: Requirement of individual culture components for hEPSCs (RT-qPCR, AP+ colony formation); type: cell-based, human; settings: withdrawal from medium, human EPSCs
Procedure: as §1, §2

AXIN1 [2] = assay: Western blot analysis of AXIN1 in porcine EPSCs; type: cell-based
Procedure: (§3) Whole-cell extracts were prepared from cells with indicated treatments in lysis buffer composed of 50 mM Tris-HCl (pH 7.5), 0.15M NaCl, 0.1% SDS, 1% Triton X-100, 1% sodium deoxycholate and complete mini EDTA free protease inhibitor cocktail (Roche Applied Science, Cat. No. 11836170001). The cells for the experiment were collected from the same batch of culture when the culture had reached 70-80% confluence. The biological replicates were included to allow the meaningful conclusions. 10 μg protein were used for electrophoresis and transferred to nitrocellulose membranes. Membranes were blocked with 5% milk and treated with antibodies. Primary antibodies of mouse or rabbit anti AXIN1, SMAD2/3, p-SMAD2/3 and ALPHA-TUBULIN were used. Horseradish peroxidase-conjugated secondary antibodies against rabbit or mouse IgG were added. After antibody treatment, blots were developed using ECL Western Blotting Detection System (Thermo Fisher Scientific, Cat. No. 32106). The antibodies used in these experiments is provided in Supplementary Table 9.

AXIN1 [3] = assay: Western blot analysis of AXIN1 in human EPSCs; type: cell-based
Procedure: as §3

canonical Wnt signalling [4] = assay: TOPflash luciferase assay in porcine EPSCs; type: cell-based
Procedure: (§4) For the TOPflash assay, 2.0×10^6 cells were transfected with 10 μg TOPflash plasmid. 5 μg pRL-TK (Renilla) vectors were also transfected for normalization. Cells were split 1:9 into a 24-well plate in pEPSCM and hEPSCM with or without XAV939 (WNTi, 2.5 μM, Cat. No. X3004) for 48 h. Cell lysates were collected for luciferase assays. For determining the regulation pattern of Oct4 expression in porcine EPSCs, 10 μg reporter constructs were electroporated into 1.5×10^6 pEPSCs with 5 μg pRL-TK. Assays were performed 48 h later. All luciferase assays were performed using the Dual-Glo Luciferase Assay System (Promega, Cat. No. E2920).

canonical Wnt signalling [5] = assay: TOPflash luciferase assay in human EPSCs; type: cell-based
Procedure: as §4

Row | canonical WNT activities (canonical Wnt signalling [4]; porcine EPSCs) | TOPflash activity (canonical Wnt signalling [4]; removing XAV939 from pEPSCM for 5 days) | canonical WNT activities (canonical Wnt signalling [5]; human EPSCs) | TOPflash activity (canonical Wnt signalling [5]; removing XAV939 from hEPSCM for 5 days) | Compound | time to differentiation of iPSCs [1] [days] | state of EPSCs on withdrawal of the compound (pEPSCs^Emb) | state of EPSCs on withdrawal of the compound (H1-EPSCs) | AXIN1 protein content (AXIN1 [2]) | AXIN1 protein content (AXIN1 [3])
1 | – | – | – | – | C[C@H]1c2cccc(O)c2C(=O)C2=C(O)[C@]3(O)C(=O)C(C(N)=O)=C(O)[C@@H](N(C)C)[C@@H]3[C@@H](O)[C@@H]21 [Dox, Doxycycline] | 4 to 5 | – | – | – | –
2 | reduced | substantially increased | reduced | substantially increased | Oc1nc(-c2ccc(C(F)(F)F)cc2)nc2c1CSCC2 [XAV939] | – | collapse and differentiation | collapse and differentiation | enhanced | enhanced

Reference: patent US20220145264A1, “CULTURE MEDIUM FOR MAMMALIAN EXPANDED POTENTIAL STEM CELLS, COMPOSITION, AND METHODS THEREOF” (THE UNIVERSITY OF HONG KONG, priority 2019, published 2022)
